For one data set, the target named is T1, human recombinant GK (Homo sapiens, UniProt P35557).
T1 sequence (P35557 1-465): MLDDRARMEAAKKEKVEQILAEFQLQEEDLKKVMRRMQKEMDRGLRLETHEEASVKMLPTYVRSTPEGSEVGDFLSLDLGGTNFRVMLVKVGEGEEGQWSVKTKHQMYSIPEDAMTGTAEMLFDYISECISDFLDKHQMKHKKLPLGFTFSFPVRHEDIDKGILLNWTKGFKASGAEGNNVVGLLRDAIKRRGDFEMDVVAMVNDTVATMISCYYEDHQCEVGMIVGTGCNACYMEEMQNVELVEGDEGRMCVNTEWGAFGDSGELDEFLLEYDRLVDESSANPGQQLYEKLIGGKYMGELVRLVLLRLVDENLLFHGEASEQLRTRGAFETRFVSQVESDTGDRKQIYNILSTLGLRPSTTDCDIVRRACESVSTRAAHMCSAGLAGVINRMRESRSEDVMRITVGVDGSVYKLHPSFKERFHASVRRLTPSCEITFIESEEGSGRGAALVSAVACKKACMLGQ
In words: Glucokinase EC50 assay. The class given is biochemical. As to conditions: compared with the other acyclic C5 analogues of Table 1.

Data set [1] can be described thus: Intrinsic clearance in rat liver microsomes. The class given is in vitro ADME.
The next data set has as its system ob/ob mice. In words: Oral glucose tolerance test in ob/ob mice. The class given is in vivo, mouse. To be noted: doses 3, 10 and 30 mg/kg oral.
For the next data set, the system named is male Sprague–Dawley rats. In words: Fed blood glucose test in male Sprague-Dawley rats. The class given is in vivo, rat. As to conditions: doses 3, 10, 30 and 100 mg/kg oral.
A short description of data set [2]: Metabolic identification studies. The class given is in vitro ADME.

In the case of `CNC(=O)Nc1cc(Oc2cncc(C)c2)c(C(C)CO)cn1` (centres unmarked) [Compound 5], the loss in potency entry on human recombinant GK is listed as “approximately 5 fold”. With `CNC(=O)Nc1cc(Oc2cncc(C)c2)c([C@H]2C[C@@H](O)C2)cn1` [Compound 7], the microsomal CLint in data set [1] was 24 µL/min/mg. For the same compound, the “blood glucose levels during an oral glucose tolerance test” value in the data set on ob/ob mice is “dose-proportional decrease”. As to `CNC(=O)Nc1cc(Oc2cncc(OC)c2)c([C@H]2CCCOC2)cn1` [Compound 21], the blood glucose levels result in the data set with male Sprague–Dawley rats is recorded as “dose-proportional decrease”. The “site of oxidation (metabolic identification)” value in data set [2] is recorded as “THP ring as one site of oxidation”.

The microsomal CLint is a measure of how fast metabolising enzymes remove a compound, apart from limits set by blood flow. A low value points to greater metabolic stability.

Source of the values: paper PMC4948010 (ACS Medicinal Chemistry Letters, 2016).
